The source of these data is EP0423818B1, “Arylsulfatase” (Bristol-Myers Squibb Company, priority 1989, dated 1991).

Tested on in one series: not given
Experiment: not given
Particulars: background statement; compound disclosed in Japanese Kokai 88/192,793; cited from earlier work.
Consider `COc1cc([C@@H]2c3cc4c(cc3[C@@H](O[C@@H]3O[C@@H]5CO[C@@H](C)O[C@H]5[C@H](O)[C@H]3O)[C@H]3COC(=O)[C@H]23)OCO4)cc(OC)c1OS(=O)(=O)O` [(III), etoposide 4'-sulfate], for which the “cytotoxicity relative to etoposide” value was “much less cytotoxic than etoposide itself”.

For the next series, the system named is Es-2 sulfatase. The series can be described thus: EDTA treatment of the enzyme and recovery of activity by Ca2+. The conditions noted are these: 10 mM of EDTA followed by dialysis against water. It counts as biochemical, Streptomyces sp. T109-3. How it is done: (a) Optimum pH. The enzyme solution (0.6 u in 50 µl of 50 mM Tris-HCl, pH 7.5) was mixed with 100 µl each of the following buffers: 500 mM sodium acetate (pH 4.0-5.5), 500 mM Tris-maleate (pH 5.5-7.7), 500 mM Tris-HCl (pH 7.5-9.0), and 500 mM glycine-NaOH (pH 9.0-10.0). The substrate, p-nitrophenylsulfate, was similarly dissolved in each of the above buffers (1 mg/ml). A sample (150 µl) from the enzyme solution is mixed with the substrate (50 µl) in the same buffer, and the mixture was incubated for 30 minutes at 37°C. The enzyme activity in each buffer was determined spectrophotometrically by UV at 415 nm. The optimal pH of the enzyme was thus determined to be about 9.0 (Fig. 1A). (b) pH stability. The stock enzyme solution was dialyzed against water to remove salts. The enzyme solution was adjusted to 0.6 u/10 µl with Tris-HCl buffer (pH 7.5). This solution (10 µl) was mixed with 40 µl each of the buffer listed in (a) and incubated for 30 minutes at 30°C. The enzyme sample (50 µl) was mixed with 100 µl of 500 mM Tris-HCl (pH 9.0) and 50 µl of substrate in water (1mg/ml), and the mixture was incubated at 37°C for 30 minutes to determine the residual enzyme activity. […] (c) Optimum temperature. Enzyme (0.6 u) in 150 µl of 50 mM Tris-HCl (pH 9.0) were incubated with p-nitrophenylsulfate (1 mg/ml, 50 µl) in the same buffer (pH 9.0) for 30 minutes at various temperatures (200 µl each). […]
In the case of `O=C(O)CN(CCN(CC(=O)O)CC(=O)O)CC(=O)O` [EDTA], the “sulfatase activity after treatment of the enzyme with EDTA” value was “the sulfatase activity disappeared”.

In another series the test system is Es-2 sulfatase. The series can be described thus: Effect of salts on sulfatase activity (protocol as for ions). Particulars: 5 mM of a salt. It counts as biochemical, Streptomyces sp. T109-3. How it is done: (§1) (a) Optimum pH. The enzyme solution (0.6 u in 50 µl of 50 mM Tris-HCl, pH 7.5) was mixed with 100 µl each of the following buffers: 500 mM sodium acetate (pH 4.0-5.5), 500 mM Tris-maleate (pH 5.5-7.7), 500 mM Tris-HCl (pH 7.5-9.0), and 500 mM glycine-NaOH (pH 9.0-10.0). The substrate, p-nitrophenylsulfate, was similarly dissolved in each of the above buffers (1 mg/ml). A sample (150 µl) from the enzyme solution is mixed with the substrate (50 µl) in the same buffer, and the mixture was incubated for 30 minutes at 37°C. The enzyme activity in each buffer was determined spectrophotometrically by UV at 415 nm. The optimal pH of the enzyme was thus determined to be about 9.0 (Fig. 1A). (b) pH stability. The stock enzyme solution was dialyzed against water to remove salts. The enzyme solution was adjusted to 0.6 u/10 µl with Tris-HCl buffer (pH 7.5). This solution (10 µl) was mixed with 40 µl each of the buffer listed in (a) and incubated for 30 minutes at 30°C. The enzyme sample (50 µl) was mixed with 100 µl of 500 mM Tris-HCl (pH 9.0) and 50 µl of substrate in water (1mg/ml), and the mixture was incubated at 37°C for 30 minutes to determine the residual enzyme activity. […] (c) Optimum temperature. Enzyme (0.6 u) in 150 µl of 50 mM Tris-HCl (pH 9.0) were incubated with p-nitrophenylsulfate (1 mg/ml, 50 µl) in the same buffer (pH 9.0) for 30 minutes at various temperatures (200 µl each). […] (d) Temperature stability. Enzyme preparations (0.6 u) in 50 mM Tris-HCl (150 µl, pH 9.0) were incubated for 15 minutes at various temperatures and then cooled in an ice bath. p-Nitrophenylsulfate (1 mg/ml, 50 µl) was added to the enzyme solution, and the mixture was incubated for 30 minutes at 37°C. The enzyme was stable below 30°C at pH 9.0 (Fig. 2B). (e) Effect of ions. Enzyme (0.6 u), p-nitrophenyl sulfate 4 mM, and ion 1 mM were dissolved in 200 µl of Tris-HCl (50 mM). The solution was incubated for 30 minutes at 37°C. p-Nitrophenol released was spectrophotometrically assayed by UV at 415 nm. […]
(g) Effect of salts. The protocol used in (e) was followed, except that 5 mM of a salt was used instead of 1 mM of a metal ion. […]
Turning to K2HPO4, the “inhibition of sulfatase activity (in words)” value is “strongly inhibited”.

Still in this series, the particulars now being: 5 mM of a salt; p-nitrophenyl sulfate 4 mM; 30 minutes at 37°C.
(NH4)2SO4: the “% Inhibit.” value came out at 44%. Turning to NaCl, the “% Inhibit.” value is reported as 58%. For the compound K2HPO4, the “% Inhibit.” value amounted to 100%. In the case of K2SO4, the “% Inhibit.” value amounted to 36%.

The next series has as its system Es-2 sulfatase. The series can be described thus: Effect of enzyme inhibitors on sulfatase activity (protocol as for ions). The conditions noted are these: 1000 µM. The series is classed as biochemical, Streptomyces sp. T109-3. On the procedure:
(a) Optimum pH. The enzyme solution (0.6 u in 50 µl of 50 mM Tris-HCl, pH 7.5) was mixed with 100 µl each of the following buffers: 500 mM sodium acetate (pH 4.0-5.5), 500 mM Tris-maleate (pH 5.5-7.7), 500 mM Tris-HCl (pH 7.5-9.0), and 500 mM glycine-NaOH (pH 9.0-10.0). The substrate, p-nitrophenylsulfate, was similarly dissolved in each of the above buffers (1 mg/ml). A sample (150 µl) from the enzyme solution is mixed with the substrate (50 µl) in the same buffer, and the mixture was incubated for 30 minutes at 37°C. The enzyme activity in each buffer was determined spectrophotometrically by UV at 415 nm. […] (b) pH stability. The stock enzyme solution was dialyzed against water to remove salts. The enzyme solution was adjusted to 0.6 u/10 µl with Tris-HCl buffer (pH 7.5). This solution (10 µl) was mixed with 40 µl each of the buffer listed in (a) and incubated for 30 minutes at 30°C. The enzyme sample (50 µl) was mixed with 100 µl of 500 mM Tris-HCl (pH 9.0) and 50 µl of substrate in water (1mg/ml), and the mixture was incubated at 37°C for 30 minutes to determine the residual enzyme activity. […] (c) Optimum temperature. Enzyme (0.6 u) in 150 µl of 50 mM Tris-HCl (pH 9.0) were incubated with p-nitrophenylsulfate (1 mg/ml, 50 µl) in the same buffer (pH 9.0) for 30 minutes at various temperatures (200 µl each). […] (d) Temperature stability. Enzyme preparations (0.6 u) in 50 mM Tris-HCl (150 µl, pH 9.0) were incubated for 15 minutes at various temperatures and then cooled in an ice bath. p-Nitrophenylsulfate (1 mg/ml, 50 µl) was added to the enzyme solution, and the mixture was incubated for 30 minutes at 37°C. […] (e) Effect of ions. Enzyme (0.6 u), p-nitrophenyl sulfate 4 mM, and ion 1 mM were dissolved in 200 µl of Tris-HCl (50 mM). The solution was incubated for 30 minutes at 37°C. p-Nitrophenol released was spectrophotometrically assayed by UV at 415 nm.
(f) Effect of enzyme inhibitors. The protocol used in (e) was followed with the exception that 1 mM of an enzyme inhibitor was used instead of a metal ion.
With `O=C(O)CI` [Iodoacetic acid], the “% Inhibit.” value stood at 96%. Turning to `O=C(O)CN(CCN(CC(=O)O)CC(=O)O)CC(=O)O` [EDTA], the “% Inhibit.” value came to 69%.

Staying with this series, now noted: 1 mM of an enzyme inhibitor; p-nitrophenyl sulfate 4 mM; 30 minutes at 37°C.
Take `CCN1C(=O)C=CC1=O` [N-Ethylmaleimide]: the “% Inhibit.” value turned out to be 35%. On to `O[C@H](CS)[C@H](O)CS` (racemic) [Dithiothreitol], for which the “% Inhibit.” value was 34%. Same read-out and setting: as for `O=C(O)c1cc[c]([Hg][Cl])cc1` [p-Chloromercuribenzoic acid], the figure is 78%; as for `c1c[nH]cn1` [Imidazole], 14%; as for `c1cnc2c(c1)ccc1cccnc12` [1,10-Phenanthroline], 60%.

On to `O=S(=O)(F)Cc1ccccc1` [Phenylmethanesulfonyl fluoride], for which the “% Inhibit.” value came out at 81%.

For the compound `O=C(O)CC(O)(CC(=O)O)C(=O)O` [Citrate], the “% Inhibit.” value was 87%. On to `N[C@@H](CS)C(=O)O` [Cysteine], for which the “% Inhibit.” value is on record as 18%. On to `OCCS` [2-Mercaptoethanol], for which the “% Inhibit.” value worked out at 22%.

The subject of a further series is sulfatase of the invention. The series can be described thus: Substrate specificity: etoposide derivatives incubated with the enzyme, TLC analysis. The series is classed as biochemical, Streptomyces sp. T109-3. Particulars: substrate 50 µl, 1 mg/ml; enzyme 0.6 u; 37°C for 30 minutes; silica gel TLC. How it is done: (h) Substrate specificity. Four etoposide derivatives were tested as substrate for the sulfatase of the invention. The substrates are: etoposide 4'-sulfate (III), 2",3"-di-O-acetyl-etoposide-4'-sulfate (IV), etoposide 2"-sulfate (V), and etoposide 3"-sulfate (VI). The substrate (50 µl, 1 mg/ml, MeOH:H2O = 1:1, pH 9.0) and the enzyme (50 µl, 0.6 u, 50 mM Tris-HCl, pH 7.5) were mixed and incubated at 37°C for 30 minutes. The mixture was then analyzed on a silica gel TLC plate using a solvent system consisting of chloroform-methanol (10:1 v/v).
Turning to `COc1cc([C@@H]2c3cc4c(cc3[C@@H](O[C@@H]3O[C@@H]5CO[C@@H](C)O[C@H]5[C@H](O)[C@H]3O)[C@H]3COC(=O)[C@H]23)OCO4)cc(OC)c1OS(=O)(=O)O` [(III), etoposide 4'-sulfate], the “substrate for the enzyme” value was “are not”. Same read-out and setting: as for `COc1cc([C@@H]2c3cc4c(cc3[C@@H](O[C@@H]3O[C@@H]5CO[C@@H](C)O[C@H]5[C@H](OC(C)=O)[C@H]3OC(C)=O)[C@H]3COC(=O)[C@H]23)OCO4)cc(OC)c1OS(=O)(=O)O` [(IV), 2",3"-di-O-acetyl-etoposide-4'-sulfate], the entry is “are not”.

Another series deals with Es-2 sulfatase. The series can be described thus: Effect of metal ions on sulfatase activity (p-nitrophenyl sulfate hydrolysis, UV at 415 nm). Particulars: ion 1 mM; enzyme 0.6 u; p-nitrophenyl sulfate 4 mM; Tris-HCl 50 mM; 30 minutes at 37°C. It counts as biochemical, Streptomyces sp. T109-3. On the procedure: Sulfatase activity during purification is monitored by determining the conversion of p-nitrophenylsulfate into p-nitrophenol using spectrophotometric means. Specifically, the following assay method is used. 50 µl of a p-nitrophenylsulfate solution (1 mg/ml in 50 mM Tris-HCl, pH7.5), 50 µl of a sample, and 100 µl of 50 mM Tris-HCl, pH 7.5, are mixed and incubated for 30 minutes at 37°C. If the activity is weak, the incubation time is prolonged up to 18 hours. The liberated p-nitrophenol is determined spectrophotometrically at 415 nm. From standard curves of p-nitrophenol and protein concentrations, the unit or specific activity per mg of the enzyme is calculated. The protein concentration is determined by measuring the absorption at 280 nm throughout purification and, in case of homogeneous protein, by the Bradford method [Bradford, M., et al., Anal. Biochem., 1976, 72:248-254] using bovine serum albumin as the standard protein. A unit of sulfatase activity is defined as the amount of enzyme which can hydrolyze one nanomole of p-nitrophenyl sulfate to p-nitrophenol in one minute at 37°C at pH 7.5.
as §1
In the case of AlCl3, the “Inhibit. (%)” value is reported as 33% and the “Rel. Activity (%)” value was determined as 67%. For ZnCl2, the “Inhibit. (%)” value was 82% and the “Rel. Activity (%)” value amounted to 18%. In the same order, the values of NiCl2 are 41% and 59%. CoCl2: the “Inhibit. (%)” value is listed as 66% and the “Rel. Activity (%)” value is reported as 34%. In the same order, the values of FeCl3 are 49% and 51%. The corresponding values for MnCl2 are 66% and 34%. The corresponding values for FeCl2 are 88% and 12%. Turning to BaCl2, the “Inhibit. (%)” value came to 17% and the “Rel. Activity (%)” value was found to be 83%. In the case of CaCl2, the “Rel. Activity (%)” value came to 213%.

On to `[Cl][Hg][Cl]` [HgCl2], for which the “Inhibit. (%)” value was 100% and the “Rel. Activity (%)” value was determined as 0%. As for CuCl2, the “Inhibit. (%)” value is given as 44% and the “Rel. Activity (%)” value is reported as 56%.
